From patent publication US10258639B2, “Methods for treating insulin resistance and for sensitizing patients to GLP1 agonist therapy” (Research Development Foundation, priority 2014, dated 2019)

What was measured:
[1] = tested on: CREB (Ser133) / CRTC2 in INS1 insulinoma cells; assay: Immunoblot of CREB phosphorylation and CRTC2 dephosphorylation in INS1 insulinoma cells; type: cell-based, rat; details: within 30 minutes, FSK 10 μM, KCl 40 mM
Experimental: (§1) INS-1 insulinoma cells were cultured in RPMI (corning cellgro) containing 10% fetal bovine serum (Gemini Bio Products), 100 μg/mL penicillin-streptomycin and 1 mM sodium pyruvate (corning cellgro). MIN6 cells were grown in DMEM (corning cellgro) with 10% FBS, 100 μg/mL penicillin-streptomycin and 70 uM beta-mercaptoethanol. For chronic glucose experiments, cells were maintained under low (2.8 mM) or high (20 mM) glucose for 3 days. Exendin-4 (10 nM), Forskolin (10 μM), KCl (40 mM), DMOG (1 mM) and rapamycin (50 nM) were added to cells as indicated. Cellular cAMP levels were measured using an ELISA kit (Cayman Chemical Company) according to manufacturer's instructions.
Total protein from cultured cells or primary islets was extracted in a Tris-HCl buffer containing 0.5% NP40, protease and phosphatase inhibitors. Proteins were quantified using Bradford reagent and separated using SDS-PAGE. For cellular fractionation, cells were resuspended in hypotonic lysis buffer (40 mM TrisHCl PH 7.4, 10 mM NaCl, 1 mM EDTA with DTT and protease inhibitors). Cells were lysed using a dounce homogenizer and centrifuged. Cytosolic supernatants were collected. Nuclear pellets were washed 3 times and resuspended in nuclear extraction buffer (40 mM TrisHCl PH 7.4, 420 mM NaCl, 10% Glycerol, 1 mM EDTA). Samples were sonicated and centrifuged. Nuclear supernatants were collected. […]

PKIB in INS1 cells = assay: PKIB expression (mRNA/protein) in INS1 cells; type: cell-based, rat; details: DMOG 1 mM
Experimental: Moreover, RNAi-mediated depletion of HIF-1α also disrupted PKIB induction, whereas HIF-1α over-expression potentiated it (FIG. 5f, FIGS. 10e and 10f).
as §1
Total RNAs from cells or primary islets were extracted using Trizol and cDNA was generated using the Transcriptor First Strand cDNA Synthesis kit (Roche Applied Science). cDNAs were quantified on a lightcycler 480 instrument (Roche Applied Science). […] Libraries were quantitated by Qubit (Invitrogen), and run on a MiSeq instrument with paired-end 75 bp reads using v3 chemistry (Illumina) Data were analyzed by tophat2 and cuffdiff against the mouse mm10 genome build. […]

[2] = Matthews et al. 2008; cited from earlier work
human GLP1 receptor = human GLP1 receptor (Homo sapiens, UniProt P43220); details: greater affinity vs native GLP1; cited from earlier work
human GLP1 receptor, sequence (P43220 24-463): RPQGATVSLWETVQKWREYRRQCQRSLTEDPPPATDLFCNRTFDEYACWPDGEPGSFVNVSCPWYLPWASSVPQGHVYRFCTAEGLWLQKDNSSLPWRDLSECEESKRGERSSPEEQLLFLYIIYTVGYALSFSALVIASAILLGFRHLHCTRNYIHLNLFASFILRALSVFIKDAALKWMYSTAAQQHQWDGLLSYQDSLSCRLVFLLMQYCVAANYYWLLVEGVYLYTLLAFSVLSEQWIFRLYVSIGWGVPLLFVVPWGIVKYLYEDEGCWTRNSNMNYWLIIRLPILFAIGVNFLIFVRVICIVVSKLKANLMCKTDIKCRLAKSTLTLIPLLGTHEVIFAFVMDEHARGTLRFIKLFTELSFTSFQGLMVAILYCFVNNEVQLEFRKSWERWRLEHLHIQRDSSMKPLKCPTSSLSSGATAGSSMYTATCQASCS

[3] = mildly hyperglycaemic patients with Type 2 diabetes on metformin (Ratner et al. 2010); cited from earlier work

[Cl-].[K+] [KCl]
phosphorylation of CREB at Ser133 [1]: stimulated CREB phosphorylation to a lesser extent

COC(=O)CNC(=O)C(=O)OC [DMOG]
PKIB expression (PKIB in INS1 cells): upregulated PKIB expression

Albiglutide: recombinant human serum albumin (HSA)-GLP1 hybrid protein; dipeptidyl peptidase-4-resistant glucagon-like peptide-1 dimer fused to human albumin
half-life after administration [2]: four to seven

Lixisenatide: exendin-4-based GLP1 receptor agonist
affinity for the human GLP1 receptor compared with native GLP1 (human GLP1 receptor): approximately 4 fold
glycaemic control [3]: significantly improve glycaemic control
